In the supplement of paper PMC11208160:

Assay: recombinant UMI read abundance after kanamycin selection (control-corrected) (log10(CPM+1)); higher = more efficient recombination; extreme values may be limits of the assay; sequences stand for … in AGTGCAGAGAAAATCGGCCAGTTTTCTCTGCCTGCAGTCCGCATGCCGTGGGACCCCTTGGGTTCTAACCTGTTGCCTAGATTTATGCAGCGGACTGCCTTTCTCCCAAAGTGATAAACCGG…AGGTTGGTTTCACT; site = the 11-nt donor
Method in brief: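 The measure is log10(CPM+1) for recombinant UMIs. These were PCR-amplified across the donor–target junction and sequenced after Escherichia coli carrying a donor and donor-binding-loop pair library and a target plasmid with T7-inducible IS621 bridge recombinase was plated on IPTG (0.07 mM) plus kanamycin or unselected. CPM were averaged over two replicates and scaled by control-derived factors.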
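Further: IS621 bridge recombinase in Escherichia coli cells against a fixed T5 target plasmid.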

Going from “CCAAACACATGGACCGGTTTTCCCGGTAATCCGTATTTGAT (site CCAAACACTAT)” to “CCAAAGGCATGGACCGGTTTTCCCGGTAATCCGTATTTGGC (site CCAAAGGCTGC)”, the “recombinant UMI read abundance (log10)” value falls from 1.8 to 0.

“CCAAATACATGGACCGGTTTTCCCGGTAATCCGTATTTGGC (site CCAAATACTGC)” and “CCAAATACATGGACCGGTTTTCCCGGTAATCCGTATTTGGC (site CCCAATACTGC)” are the same in “recombinant UMI read abundance (log10)” value: 0 for the first, 0 for the second.

“CCAAATACATGGACCGGTTTTCCCGGTAATCCGTATTTGGC (site CCGAATACTGC)” and “CCAAATACATGGACCGGTTTTCCCGGTAATCCGTATTTGGC (site CCTAATACTGC)” are the same in “recombinant UMI read abundance (log10)” value: 0 for the first, 0 for the second.

“CCAAATCCATGGACCGGTTTTCCCGGTAATCCGTATTTGTT (site CCAAATCCTAA)” and “CCAAATCCATGGACCGGTTTTCCCGGTAATCCGTATTTGTT (site CGGAATCCTAA)” are the same in “recombinant UMI read abundance (log10)” value: 0 for the first, 0 for the second.

First: CCAACTTCATGGACCGGTTTTCCCGGTAATCCGTATTTGGA (site CCAACTTCTTC)
Second: CCAAGCACATGGACCGGTTTTCCCGGTAATCCGTATTTGCT (site CCAAGCACTAG)
The “recombinant UMI read abundance (log10)” value of the first is lower: 0 for the first, 0.32 for the second.

Going from “CCAAGGACATGGACCGGTTTTCCCGGTAATCCGTATTTGTT (site CCAAGGACTAA)” to “CCAAGGTCATGGACCGGTTTTCCCGGTAATCCGTATTTGTT (site CCAAGGTCTAA)”, the “recombinant UMI read abundance (log10)” value rises from 0.865 to 2.12.

Going from “CCAAGTGCATGGACCGGTTTTCCCGGTAATCCGTATTTGAT (site CCAAGTGCTAT)” to “CCAAGTGCATGGACCGGTTTTCCCGGTAATCCGTATTTGAT (site CCACGTGCTAT)”, the “recombinant UMI read abundance (log10)” value falls from 1.57 to 0.00443.

“CCAAGTGCATGGACCGGTTTTCCCGGTAATCCGTATTTGAT (site CCAGGTGCTAT)” and “CCAAGTGCATGGACCGGTTTTCCCGGTAATCCGTATTTGAT (site CCATGTGCTAT)” are within 0.2 log units of each other in “recombinant UMI read abundance (log10)” value: 0.02 for the first, 0 for the second.

First: CCAATATCATGGACCGGTTTTCCCGGTAATCCGTATTTGTC (site CCAATATCTGA)
Second: CCAATATCATGGACCGGTTTTCCCGGTAATCCGTATTTGTC (site CCCATATCTGA)
The “recombinant UMI read abundance (log10)” value of the first is higher: 1.16 for the first, 0.0129 for the second.

First: CCAATATCATGGACCGGTTTTCCCGGTAATCCGTATTTGTC (site CCGATATCTGA)
Second: CCAATATCATGGACCGGTTTTCCCGGTAATCCGTATTTGTC (site CCTATATCTGA)
The “recombinant UMI read abundance (log10)” value of the first is lower: 0 for the first, 1.27 for the second.

Compared with “CCACACACATGGACCGGTTTTCCCGGTAATCCGTATTTGTA (site CCACACACTTA)”, “CCACACACATGGACCGGTTTTCCCGGTAATCCGTATTTGTA (site CCCCACACTTA)” is lower in “recombinant UMI read abundance (log10)” value: 1.15 for the first, 0.0104 for the second.

“CCACACACATGGACCGGTTTTCCCGGTAATCCGTATTTGTA (site CCGCACACTTA)” and “CCACACACATGGACCGGTTTTCCCGGTAATCCGTATTTGTA (site CCTCACACTTA)” are within 0.2 log units of each other in “recombinant UMI read abundance (log10)” value: 0.0104 for the first, 0.0109 for the second.

“CCACATTCATGGACCGGTTTTCCCGGTAATCCGTATTTGAT (site CCACATTCTAT)” and “CCACCACCATGGACCGGTTTTCCCGGTAATCCGTATTTGTA (site CCACCACCTTA)” are within 0.2 log units of each other in “recombinant UMI read abundance (log10)” value: 0 for the first, 0.00663 for the second.

Compared with “CCACGAACATGGACCGGTTTTCCCGGTAATCCGTATTTGCA (site CCACGAACTTG)”, “CCACGCGCATGGACCGGTTTTCCCGGTAATCCGTATTTGAG (site CCACGCGCTCT)” is higher in “recombinant UMI read abundance (log10)” value: 0 for the first, 0.759 for the second.

Going from “CCAGAATCATGGACCGGTTTTCCCGGTAATCCGTATTTGTG (site CCAGAATCTCA)” to “CCAGCAGCATGGACCGGTTTTCCCGGTAATCCGTATTTGCT (site CAAGCAGCTAG)”, the “recombinant UMI read abundance (log10)” value falls from 2.13 to 0.

“CCAGCAGCATGGACCGGTTTTCCCGGTAATCCGTATTTGCT (site CCAGCAGCTAG)” and “CCAGCAGCATGGACCGGTTTTCCCGGTAATCCGTATTTGCT (site CGAGCAGCTAG)” are within 0.2 log units of each other in “recombinant UMI read abundance (log10)” value: 0.104 for the first, 0 for the second.

“CCAGCAGCATGGACCGGTTTTCCCGGTAATCCGTATTTGCT (site CTAGCAGCTAG)” and “CCAGCATCATGGACCGGTTTTCCCGGTAATCCGTATTTGAC (site CCAGCATCTGT)” are within 0.2 log units of each other in “recombinant UMI read abundance (log10)” value: 0.0142 for the first, 0 for the second.

Going from “CCAGCATCATGGACCGGTTTTCCCGGTAATCCGTATTTGAC (site CTAGTATCTGT)” to “CCAGGAGCATGGACCGGTTTTCCCGGTAATCCGTATTTGAT (site CCAGGAGCTAT)”, the “recombinant UMI read abundance (log10)” value rises from 0 to 1.6.

“CCAGGAGCATGGACCGGTTTTCCCGGTAATCCGTATTTGAT (site CCAGGCGCTAT)” and “CCAGGAGCATGGACCGGTTTTCCCGGTAATCCGTATTTGAT (site CCAGGGGCTAT)” are within 0.2 log units of each other in “recombinant UMI read abundance (log10)” value: 0.854 for the first, 0.941 for the second.

First: CCAGGAGCATGGACCGGTTTTCCCGGTAATCCGTATTTGAT (site CCAGGTGCTAT)
Second: CCAGGTACATGGACCGGTTTTCCCGGTAATCCGTATTTGAT (site CCAGGTACTAT)
The “recombinant UMI read abundance (log10)” value of the first is higher: 1.78 for the first, 0.643 for the second.

Compared with “CCAGGTACATGGACCGGTTTTCCCGGTAATCCGTATTTGAT (site CCAGGTCCTAT)”, “CCAGGTACATGGACCGGTTTTCCCGGTAATCCGTATTTGAT (site CCAGGTGCTAT)” is higher in “recombinant UMI read abundance (log10)” value: 0 for the first, 1.2 for the second.

First: CCAGGTACATGGACCGGTTTTCCCGGTAATCCGTATTTGAT (site CCAGGTTCTAT)
Second: CCAGGTGCATGGACCGGTTTTCCCGGTAATCCGTATTTGCT (site CCAGGTGCTAA)
The “recombinant UMI read abundance (log10)” value of the first is higher: 0.478 for the first, 0.208 for the second.

Compared with “CCAGGTGCATGGACCGGTTTTCCCGGTAATCCGTATTTGCT (site CCAGGTGCTAC)”, “CCAGGTGCATGGACCGGTTTTCCCGGTAATCCGTATTTGCT (site CCAGGTGCTAG)” is higher in “recombinant UMI read abundance (log10)” value: 0.00458 for the first, 1.46 for the second.

Compared with “CCAGGTGCATGGACCGGTTTTCCCGGTAATCCGTATTTGCT (site CCAGGTGCTAT)”, “CCAGGTGCATGGACCGGTTTTCCCGGTAATCCGTATTTGTT (site CCAGGTGCTAA)” is higher in “recombinant UMI read abundance (log10)” value: 0.402 for the first, 0.856 for the second.

First: CCAGGTGCATGGACCGGTTTTCCCGGTAATCCGTATTTGTT (site CCAGGTGCTAC)
Second: CCAGGTGCATGGACCGGTTTTCCCGGTAATCCGTATTTGTT (site CCAGGTGCTAG)
The “recombinant UMI read abundance (log10)” value of the first is lower: 0.00844 for the first, 1.42 for the second.

“CCAGGTGCATGGACCGGTTTTCCCGGTAATCCGTATTTGTT (site CCAGGTGCTAT)” and “CCAGTATCATGGACCGGTTTTCCCGGTAATCCGTATTTGAC (site CAAGTATCTGT)” are within 0.2 log units of each other in “recombinant UMI read abundance (log10)” value: 1.14 for the first, 0.983 for the second.

Going from “CCAGTATCATGGACCGGTTTTCCCGGTAATCCGTATTTGAC (site CCAGTATCTGT)” to “CCAGTATCATGGACCGGTTTTCCCGGTAATCCGTATTTGAC (site CGAGTATCTGT)”, the “recombinant UMI read abundance (log10)” value falls from 0.685 to 0.

“CCAGTATCATGGACCGGTTTTCCCGGTAATCCGTATTTGAC (site CTAGTATCTGT)” and “CCATACACATGGACCGGTTTTCCCGGTAATCCGTATTTGTT (site CCATACACTAA)” are within 0.2 log units of each other in “recombinant UMI read abundance (log10)” value: 0.871 for the first, 0.866 for the second.

Compared with “CCATATTCATGGACCGGTTTTCCCGGTAATCCGTATTTGAC (site GGGATCGCTAC)”, “CCATCAGCATGGACCGGTTTTCCCGGTAATCCGTATTTGCT (site CCATCAGCTAG)” is higher in “recombinant UMI read abundance (log10)” value: 0.00628 for the first, 0.375 for the second.

“CCATCAGCATGGACCGGTTTTCCCGGTAATCCGTATTTGCT (site CGATCATCTAG)” and “CCATCATCATGGACCGGTTTTCCCGGTAATCCGTATTTGCA (site CCATCATCTTG)” are within 0.2 log units of each other in “recombinant UMI read abundance (log10)” value: 0.145 for the first, 0 for the second.

“CCATCATCATGGACCGGTTTTCCCGGTAATCCGTATTTGCA (site CGATCATCTAG)” and “CCATCCCCATGGACCGGTTTTCCCGGTAATCCGTATTTGAT (site CCATCCCCTAT)” are within 0.2 log units of each other in “recombinant UMI read abundance (log10)” value: 0 for the first, 0.0114 for the second.

Going from “CCATTATCATGGACCGGTTTTCCCGGTAATCCGTATTTGAC (site CCATTATCTGT)” to “CCCAAATCATGGACCGGTTTTCCCGGTAATCCGTATTTGTC (site CCCAAATCTGA)”, the “recombinant UMI read abundance (log10)” value rises from 0.804 to 1.93.

“CCCAAATCATGGACCGGTTTTCCCGGTAATCCGTATTTGTC (site CCCACATCTGA)” and “CCCAAATCATGGACCGGTTTTCCCGGTAATCCGTATTTGTC (site CCCAGATCTGA)” are the same in “recombinant UMI read abundance (log10)” value: 0 for the first, 0 for the second.

“CCCAAATCATGGACCGGTTTTCCCGGTAATCCGTATTTGTC (site CCCATATCTGA)” and “CCCAAGCCATGGACCGGTTTTCCCGGTAATCCGTATTTGCC (site CCCAAGCCTGG)” are the same in “recombinant UMI read abundance (log10)” value: 0 for the first, 0 for the second.

“CCCAAGCCATGGACCGGTTTTCCCGGTAATCCGTATTTGCC (site CCCCAGCCTGG)” and “CCCAAGCCATGGACCGGTTTTCCCGGTAATCCGTATTTGCC (site CCCGAGCCTGG)” are the same in “recombinant UMI read abundance (log10)” value: 0 for the first, 0 for the second.

“CCCAAGCCATGGACCGGTTTTCCCGGTAATCCGTATTTGCC (site CCCTAGCCTGG)” and “CCCAGCACATGGACCGGTTTTCCCGGTAATCCGTATTTGAA (site CCCAGCACTTT)” are within 0.2 log units of each other in “recombinant UMI read abundance (log10)” value: 0.398 for the first, 0.515 for the second.

Going from “CCCAGCTCATGGACCGGTTTTCCCGGTAATCCGTATTTGCA (site CCCAGCTCTTG)” to “CCCATACCATGGACCGGTTTTCCCGGTAATCCGTATTTGTG (site CCCATACCTCA)”, the “recombinant UMI read abundance (log10)” value falls from 2.3 to 0.0125.

With “CCCATATCATGGACCGGTTTTCCCGGTAATCCGTATTTGGC (site CCCATATCTGA)” the “recombinant UMI read abundance (log10)” value was 0.
